From publication PMC6826492, “Experimental and Computational Study of the Antioxidative Potential of Novel Nitro and Amino Substituted Benzimidazole/Benzothiazole-2-Carboxamides with Antiproliferative Activity” (Antioxidants, 2019)
Where two headings read alike, the source gives them in different places.

Tests used:
[1] = cited from earlier work
[2] = Ferric reducing/antioxidant power (FRAP assay); type: biochemical; details: for FRAP: means ± standard deviation, absorbance at 593 nm
Procedure: The FRAP method was carried out according to previously described procedures with some modifications to be compatible with an assay on a 96-well microplate. All tests were done in triplicate, while the obtained results were averaged and reported as Fe^2+ equivalents (Fe^2+ µmol).
By using the FRAP assay, we investigated the reducing power of investigated systems, which was monitored by the corresponding changes in the absorbance at 593 nm. This method is based on the ability of systems to reduce the ferric tripyridyl triazine complex (TPTZ) to the ferrous state (Fe^2+), which can be seen by an intense blue color. […] Good reducing ability was shown by the trimethoxy substituted benzimidazole-2-carboxamide 14 bearing the amino group (1102.5 ± 14.1 mmolFe^2+/mmolC).

[3] = DPPH free radical scavenging; type: biochemical; details: for IC50: after 30 min of incubation with 100 μM DPPH
Procedure: The reducing activity of investigated systems was achieved by the DPPH method according to previously described procedures with modifications to assure the use in a 96-well microplate. Briefly, equal volumes of various concentrations of tested molecules (dissolved in DMSO) were added to the solution of DPPH (final concentration 50 µM in absolute ethanol). Ethanol and DMSO were used as control solutions in line with earlier reports.

[4] = system: H 460 (lung carcinoma); test: Antiproliferative activity in vitro (MTT assay); type: cell-based, human; details: Homo sapiens, NCI-H460, 72 h, 72 h incubation, concentration that causes 50% growth inhibition
Procedure: (§1) The experiments were performed on four human cell lines, including HCT 116 (colon carcinoma), H 460 (lung carcinoma), MCF-7 (breast carcinoma), and HEK 293 (human embryonic kidney cells), in line with previously published experimental procedures. Briefly, the cells were grown in DMEM medium with the addition of 10% fetal bovine serum (FBS), 2 mM L-glutamine, 100 U/mL penicillin, and 100 µg/mL streptomycin, and cultured as monolayers at 37 °C in a humidified atmosphere with 5% CO2. Cells were seeded at 2 × 10^3 cells/well in a standard 96-well microtiter plates and left to attach for 24 h. The next day, a test compound was added in five serial 10-fold dilutions. The rate of cell growth was evaluated after 72 h of incubation with MTT assays. The obtained results are expressed as IC50 values, calculated from the concentration-response curve using linear regression analysis by fitting the test concentrations that give PG values above and below the reference value (i.e., 50%). Each test was performed in quadruplicate in at least two individual experiments.

[5] = system: HCT 116 (colon carcinoma); test: Antiproliferative activity in vitro (MTT assay); type: cell-based, human; details: Homo sapiens, HCT-116, 72 h, 72 h incubation, concentration that causes 50% growth inhibition, read-out: IC50 HCT116
Procedure: as §1

[6] = system: MCF-7 (breast carcinoma); test: Antiproliferative activity in vitro (MTT assay); type: cell-based, human; details: Homo sapiens, MCF7, 72 h, 72 h incubation, concentration that causes 50% growth inhibition
Procedure: as §1

[7] = system: HCT116 cell line; test: Mitochondrial ROS measurement assay (MitoSOX, flow cytometry); type: cell-based, human; details: HCT116, 10 µM compounds (3 µM Rotenone positive control), 1 h, *** p < 0.001, ns not significant
[8] = system: HEK 293 (human embryonic kidney cells); test: Cytotoxic activity on non-cancerous cells (MTT assay); type: cell-based; details: Homo sapiens, HEK293; non-tumor cell line; 72 h incubation, MTT; concentration that causes 50% growth inhibition
Procedure: as §1

[9] = system: HCT 116 cells; test: Antioxidative activity assay in cells (TBHP-induced ROS, DCFH-DA); type: cell-based, human; details: 100 µM TBHP + 10 µM compound, 1 h, DCFH-DA fluorescence
Procedure: For the antioxidative activity assay, 2.5 × 10^4 cells were seeded into 96-well microtiter plates and left to attach for 24 h. The next day, cells were washed with PBS and incubated in FBS-free DMEM medium with 25 µM DCFH-DA fluorescence dye. After 45 min of incubation, medium was discarded, and cells were washed with PBS. After the washing step, cells were incubated with 100 µM tert-Butyl hydroperoxide (TBHP) alone or in combination with antioxidative agents (50 mM N-Acetyl-L-cysteine—NAC, or 10 µM tested compounds) in PBS, for 1 h at 37 °C. DCFH-DA fluorescence was recorded on a microplate fluorimeter reader (Tecan) with excitation beam of 485 nm, while the emitted fluorescence was collected at 535 nm. All tests were presented as medians of three independent measurements, done in triplicates. One-way ANOVA with Tukey’s post-hoc test was used for statistical analysis, * p < 0.05, ** p < 0.01, *** p < 0.001.
In order to test the antioxidant activity of selected systems in tumor cells (Figure 1), we treated HCT 116 cells with tert-Butyl hydroperoxide (TBHP), a substance commonly used for inducing oxidative stress in cells and tissues, alone or in a combination with a known antioxidative agent N-Acetyl-L-cysteine (NAC) or tested compounds [35]. We measured the formation of oxidative stress by-products using 2′,7′-dichlorodihydrofluorescein diacetate (DCFH-DA). We selected system 8 showing pronounced antiproliferative/cytotoxic activity, but no antioxidant capacity in DPPH/FRAP assays, 29 showing exceptionally pronounced antioxidative activity in DPPH/FRAP tests, 14 showing negligible antiproliferative but strong antioxidant capacity in both DPPH/FRAP assays, and 26 showing similarly strong antiproliferative and radical trapping activity in DPPH assay, but rather modest reducing power in FRAP assay. None of the compounds influenced the basal level of ROS in the cells. […] On the other hand, no effect was obtained upon treatment with either 8 or 14 (Figure 1). We additionally tested the impact of the selected compounds on cellular and mitochondrial ROS production in HCT 116 cells using fluorescent dyes, DCFH-DA for cellular and MitoSOX for mitochondrial ROS detection (Supplementary Materials, Figures S53 and S54).
Figure 1 Antioxidative activity of selected systems. HCT 116 cells were treated with the combination of tert-Butyl hydroperoxide (TBHP, 100 uM) and N-Acetyl-L-cysteine (NAC, 50 mM) or tested compounds 8, 14, 26, and 29 (10 µM) for 1 h. The level of reactive oxygen species (ROS) was measured with fluorescent dye 2′,7′-dichlorodihydrofluorescein diacetate (DCFH-DA) using fluorimeter. Treatment with 100 uM TBHP alone was used as a control for ROS induction. Data presented here are the results of three independent measurements, done in triplicates. […]

[10] = system: HCT116 cell line; test: Cellular ROS measurement assay (DCFH-DA, flow cytometry); type: cell-based, human; details: HCT116, 10 µM compounds (2 mM H2O2 positive control), 1 h, DCF-DA; *** p < 0.001, ns not significant
Procedure: Figure S53. Impact of compounds on cellular ROS production was measured with fluorescent dye DCF-DA in HCT116 cell line, after the treatment with 10 µM compounds for 1h. H 2O2 was used as a positive control. Data presented here are the results of 3 independent measurements, done in duplicates. One-way ANOVA with Tukey’s post-hoc test was used for statistical analysis, ***- p < 0.001. […]
Human colon carcinoma cell line HCT116 was grown in DMEM medium with the addition of 10% fetal bovine serum (FBS), 2 mM L-glutamine, 100 U/ml penicillin and 100 µg/ml streptomycin, and cultured as monolayers at 37°C in a humidified atmosphere with 5% CO2.
Cellular ROS measurement assay
For the cellular ROS measurement assay, 2.5 × 10^4 cells were seeded into 96-well microtiter plates 24h prior to experiment. Next day, cells were trypsinized and incubated in FBS-free DMEM medium with 20 µM DCFH-DA fluorescence dye for 45 minutes. After the incubation, compounds were added without washing and cells were treated with 2 mM H 2O2 as a positive control and 10 µM compounds 8, 14 and 26 for 1 hour. Cells were washed in PBS and DCFH-DA signal was measured by flow cytometry, in FL1 channel. […]

[11] = DFT calculation of bond dissociation and ionization energies; details: for BDE lower than BDE (M1): difference to M1
Description: All geometrical parameters were optimized employing the density functional theory (DFT) B3LYP functional (unrestricted UB3LYP for the radicals), together with the 6–31+G(d) basis set, followed by the vibrational analysis using the Gaussian 16 software. Thermal corrections were extracted from the matching uncorrected vibrational frequencies, also used to confirm the obtained structures as true minima by the lack of imaginary frequencies. The final electronic energies were refined through single-point calculations with a highly flexible 6–311++G(2df,2pd) basis set. Solvent effects were considered through the implicit SMD polarizable continuum model with all parameters for pure ethanol (ε = 24.852), giving the B3LYP/6–311++G(2df,2pd)//(SMD)/B3LYP/6–31+G(d) model employed here, being fully in line with our earlier reports. As such, all computational values correspond to differences in Gibbs free energies obtained at a room temperature of 298 K and a normal pressure of 1 atm. The choice of this computational setup was additionally prompted by its success in modeling mechanisms of various antioxidants, and in reproducing kinetic and thermodynamic parameters of a variety of organic and enzymatic reactions. According to the literature, there are several mechanisms that relate to the antioxidative properties of molecules. Here, we inspected the two most frequent, and usually thermodynamically most preferred antioxidant mechanisms, namely hydrogen atom transfer (HAT), and single electron transfer (SET) that is commonly followed by proton transfer (SET-PT). All these mechanisms result in the formation of the same antioxidant radical.
HAT is a major route where the H atom (hydrogen radical, H•) is directly transferred from an antioxidant (M) to a free radical accompanied by the homolytic M–H bond cleavage. The capacity of this process is governed by the M–H bond dissociation energy (BDE), calculated as:M–H → M• + H• BDE = G(M•) + G(H•) − G(M–H).
Scavenging the free radicals can also be accomplished by donating an electron from a system M in the SET-PT process. This process is driven by the adiabatic ionization energy (IE) necessary to eject a single electron from M, calculated as:M → M•^+ + e^− IE = G(M•^+) − G(M).

[12] = monocationic, in acetonitrile ref 39

## Cc1cc(C(C)(C)C)c(O)c(C(C)(C)C)c1 [BHT, butylated hydroxytoluene, reference compound]
[1]; in benzene ref 45
  BDE: 76.9 kcal/mol
[1]; in heptane ref 44
  BDE: 79.9 kcal/mol
[1]; in toluene ref 46
  BDE: 72.4 kcal/mol
[2]
  FRAP: 2089 ± 60 mmolFe^2+/mmolC
[3]
  IC50: 25 ± 4 µM

## COc1cc(C(=O)Nc2nc3ccc(N)cc3[nH]2)cc(OC)c1OC [Compound 14, N-[5(6)-aminobenzimidazol-2-yl]-3,4,5-trimethoxybenzamide]
[4]
  IC50: > 100 µM
[5]
  IC50: 76 ± 24 µM
[6]
  IC50: 43 ± 15 µM
[7]
  mitochondrial ROS production (significance vs control): ns
[8]
  IC50: 43 ± 2 µM
[2]
  FRAP: 1102.5 ± 14.1 mmolFe^2+/mmolC
[3]; DPPH, 14 vs 17
  antioxidant potency relative to 17: around four times
[3]
  IC50: 10.7 ± 0.23 µM
[9]
  ROS levels when oxidative stress was induced: no effect
[10]
  cellular ROS production (significance vs control): ns

## O=C(Nc1nc2ccc([N+](=O)[O-])cc2s1)c1cc(O)c(O)c(O)c1 [Compound 29, 3,4,5-trihydroxy-N-(6-nitrobenzothiazol-2-yl)benzamide]
[4]
  IC50: 2 ± 1 µM
[5]
  IC50: 7 ± 1 µM
[6]
  IC50: 4 ± 0.7 µM
[8]
  IC50: 6 ± 4 µM
[2]
  FRAP: 6139.2 ± 3.0 mmolFe^2+/mmolC
[2]; relative to BHT
  FRAP reducing power in comparison to standard BHT: threefold higher
[3]
  IC50: 2 ± 0.15 µM
[9]
  ROS levels when oxidative stress was induced: significantly reduced the ROS levels
[11]; difference to M12
  BDE increase relative to M12: 0.8 kcal/mol

## O=C(Nc1nc2ccccc2s1)c1ccccc1 [Compound M1]
[11]; difference to BHT (65.8)
  BDE higher than that for BHT: 16.9 kcal/mol

## O=C(NC1=Nc2ccccc2C1)c1ccccc1 [Compound M4]
[11]
  BDE lower than BDE (M1): 10.1 kcal/mol

## Nc1ccc2nc(NC(=O)c3ccccc3)sc2c1 [Compound M6]
[11]
  BDE lower than BDE (M1): 7.1 kcal/mol

## Nc1ccc2nc(NC(=O)c3ccccc3)sc2c1 [Compound M7]
[11]; difference to BHT (65.8)
  BDE lower than BDE (BHT): 17.5 kcal/mol

## O=C(Nc1nc2ccccc2s1)c1ccc(O)cc1 [Compound M8]
[11]
  BDE lower than BDE (M1): 4.8 kcal/mol

## COc1ccc(C(=O)Nc2nc3ccccc3s2)cc1 [Compound M9]
[11]
  BDE lower than BDE (M1): 0.5 kcal/mol

## O=C(Nc1nc2ccc([N+](=O)[O-])cc2s1)c1ccc(O)cc1 [Compound M10]
[11]; difference to M8
  lowering of antioxidative capacity (BDE increase) relative to M8: 1.1 kcal/mol

## COc1cc(C(=O)Nc2nc3ccc(N)cc3[nH]2)cc(OC)c1OC [Compound M22]
[11]; difference to M21
  more potent antioxidant (lower BDE) than nitro-substituted M21: ~15 kcal/mol

## O=C(Nc1ccccc1)c1ccccc1 [Ph–CO–NH–Ph, reference compound]
[1]; earlier calculations of the authors ref 24
  BDE: 85.3 kcal/mol

## Nc1ccccc1 [Ph–NH3^+]
[1]; [12]
  BDE: 84.9 kcal/mol

## Nc1ccccc1 [aniline]
[1]; in water ref 48
  N–H BDE: 89.1 kcal/mol

## NC1CCCCC1 [c-C6H11–NH3^+]
[1]; [12]
  BDE: 113.6 kcal/mol

## O=C(O)c1cc(O)c(O)c(O)c1 [gallic acid]
[1]
  calculated BDE: 77.0 kcal/mol

## Oc1ccccc1 [phenol]
[1]
  calculated BDE: 82.9 kcal/mol
